US10058516B2, “Design, synthesis and methods of use of acyclic fleximer nucleoside analogues having anti-coronavirus activity” (priority 2015, dated 2018)
Like-named read-outs stand apart in the source and are kept apart here.

How the values were obtained:
[1] = test system: MERS-CoV (strain EMC/2012); assay: microbe, parasite or virus in culture; format: cell-based; settings: for EC50: Middle East respiratory syndrome-related coronavirus, Huh-7, read-out: EC50: Effective concentration showing 50% inhibition of virus-induced CPE
[2] = test system: MERS-CoV (strain EMC/2012); assay: microbe, parasite or virus in culture; format: cell-based; settings: Middle East respiratory syndrome-related coronavirus, Vero, read-out: EC50: Effective concentration showing 50% inhibition of virus-induced CPE
in vitro = settings: human
[3] = test system: SARS-CoV (strain Frankfurt-1); assay: microbe, parasite or virus in culture; settings: Severe acute respiratory syndrome coronavirus
HCoV-NL63 = assay: NL63-CoV antiviral assay (CPE scored microscopically)
[4] = Cytotoxicity in Vero118 cells (NL63 assay, cell viability scored microscopically); settings: African green monkey, Vero118 cells, CC50: Cytotoxic concentration showing 50% inhibition of cell survival, Vero118 (HCoV-NL63 assay)
Vero118 cells = assay: as above; settings: read-out: CC50: Cytotoxic concentration showing 50% inhibition of cell survival; Vero118 (HCoV-NL63 assay)
[5] = test system: SARS-CoV (strain Frankfurt-1)
SARS-CoV or MERS-CoV = settings: cited from earlier work
coronavirus = coronavirus replication in vitro; cited from earlier work
other viruses = settings: cited from earlier work
Huh7 cells = settings: human
Vero cells = settings: African green monkey
VeroE6 cells = settings: African green monkey
HIV-1 and HSV-2 = settings: when McGuigan's ProTide technology was employed, cited from earlier work
[6] = Vero C1008, read-out: EC50: Effective concentration showing 50% inhibition of virus-induced CPE
[7] = Human coronavirus NL63, read-out: EC50: Effective concentration showing 50% inhibition of virus-induced CPE, HCoV-NL63 in Vero118

Row | Structure (SMILES) | block the replication of MERS-CoV [1] | EC50 [1] [µM] | EC50 [2] [µM] | EC50 [3, 6] [µM] | EC50 (HCoV-NL63; [7]) [µM] | CC50 at 5 days [4] [µM] | activity against SARS-CoV or MERS-CoV in vitro (SARS-CoV or MERS-CoV) | other results
1 | COc1nc(N)ncc1-c1cn(COCCO)cn1 [Compound 2, 2-((4-(2-amino-4-methoxypyrimidin-5-yl)-1H-imidazol-1-yl)methoxy)ethan-1-ol] | can block the replication of MERS-CoV | 13.5 | 10.1 ± 1.2 | 28.1 ± 0.2 | < 10 | > 100 |  | CC50 (in vitro): 54 ± 1.7 µM; selective antiviral activity (CC50>10×) (HCoV-NL63; HCoV-NL63 in Vero118, CC50 relative to EC50): > 10 ×; EC50 (HCoV-NL63; read-out: EC50: Effective concentration showing 50% inhibition of virus-induced CPE, HCoV-NL63 in Vero118): 8.8 ± 1.5 µM; CC50 (Vero118 cells): 120 ± 37 µM
2 | COc1nc(N)ncc1-c1cn(COCCOC(C)=O)cn1 [Compound 19, 2-((4-(2-amino-4-methoxypyrimidin-5-yl)-1H-imidazol-1-yl)methoxy)ethyl acetate] | can block the replication | 5.3 ± 0.7 | 3.4 ± 0.3 | 11.9 ± 0.2 |  |  |  | CC50 as multiple of the EC50 [5]: ~3 times the EC50; block the replication of SARS-CoV [5]: can block the replication; CC50 (in vitro): 23.4 ± 0.4 µM; EC50 ([3]; Vero C1008): < 12 µM
3 | Nc1nc(O)c2ncn(COC(CO)CO)c2n1 [ganciclovir] |  |  |  |  |  |  | none of these well-known antiviral drugs exhibited any activity | 
4 | NC(=O)c1ncn([C@@H]2O[C@H](CO)[C@@H](O)[C@H]2O)n1 [Ribavirin, ribavirin] |  |  |  |  |  |  |  | inhibitory concentration (coronavirus): 500 to 5000 µg/mL; inhibitory concentration needed to inhibit other viruses (other viruses): 50 to 100 µg/mL
5 | OCCOCn1cnc(-c2cnc(O)nc2O)c1 [Compound 1, 5-(1-((2-hydroxyethoxy)methyl)-1H-imidazol-4-yl)pyrimidine-2,4-diol] |  |  |  |  | 92 ± 68 | > 200 |  | 
6 | Cc1cn([C@H]2C[C@H](N=[N+]=[N-])[C@@H](CO)O2)c(=O)[nH]c1=O [zidovudine] |  |  |  |  |  |  | none of these well-known antiviral drugs exhibited any activity | 
7 | Nc1nc2c(ncn2COCCO)c(=O)[nH]1 [Acyclovir, acyclovir, reference compound] | had no effect | > 1000 | > 1000 | > 1000 | > 100 | > 100 | none of these well-known antiviral drugs exhibited any activity | CC50 (Huh7 cells): > 1000 µM; CC50 (Vero cells): > 1000 µM; block the replication of SARS-CoV [5]: had no effect; CC50 (VeroE6 cells): > 1000 µM; suppression of replication of both HIV-1 and HSV-2 (HIV-1 and HSV-2; CD4+ T cells): 3 to 12 µmol/L; suppression of replication of both HIV-1 and HSV-2 (HIV-1 and HSV-2; lymphoid and cervicovaginal human tissues): submicromolar range
8 | Nc1ncc(-c2cn(COCCO)cn2)c(O)n1 [Compound 3, 2-amino-5-(1-((2-hydroxyethoxy)methyl)-1H-imidazol-4-yl)pyrimidin-4(3H)-one] |  |  |  |  | > 200 | > 200 |  | 
